Results published in US20090170906A1, “HCV INHIBITORS” (priority 2004, published 2009).

Each compound was assayed on HCV genotype 1b strain Con1 replicon (ET replicon line, Huh7 cells) (assay: ET replicon luciferase assay (HCV activity)). Settings: Hepatitis C virus, Huh-7, Huh7 cells with HCV genotype 1b Con1 luciferase replicon, 72 hours incubation.
Format: cell-based
Protocol: Compounds of the current invention are believed useful in the treatment and/or prophylaxis of conditions and diseases associated with HcV infection. Activity mediated through HCV was determined using an ET replicon line.
The Materials used include a Medium comprised of DMEM (1× liquid, high glucose); Invitrogen cat# 11965-092; 100× Penicillin/Streptomycin solution (10,000 Units/mL); Invitrogen cat# 15140-122; 100× Non-essential amino acid solution (10 mM); Invitrogen cat# 11140-050; Fetal bovine serum; JRH Biosciences cat# 12107-500M; Geneticin (50 mg/mL); Invitrogen cat# 10131-035
The Luciferase assay reagents include Steady-Glo Luciferase assay system, cat# E2550 (Promega)
The ET replicon line (see Lohmann et al. (1999), Replication of subgenomic hepatitis C virus RNAs in a hepatoma cell line. Science 285: 110-113; Krieger et al. (2001), Enhancement of hepatitis C virus RNA replication by cell culture-adaptive mutations. J. Virol. 75: 46144624; and Vrolijk et al. (2003), A replicon-based bioassay for the measurement of interferons in patients with chronic hepatitis C. J. Virol. Meth. 110: 201-209, each herein incorporated by reference with regard to the ET replicon line), includes Huh7 cells stably transfected with HCV genotype 1b strain Con1 replicon. This replicon expresses the firefly luciferase, has the coding region for ubiquitin inserted upstream of the neomycin gene, and carries three cell culture-adaptive mutations that enhance RNA replication cooperatively (E1202G, T1280I, and S2197P). The ET cell line was obtained under licence from: R^eBLikon GmbH, Nach dem alten Schloss 22, 55239 Gau-Odemheim, Germany.
Cells are maintained at 37° C., 5% CO2, in DMEM with 10% FCS, 1× penicillin/streptomycin, 1× non-essential amino acids, 0.5 mg/mL Geneticin. For passage, cells are washed once with PBS, and incubated at 37° C. with sufficient trypsin (0.05%)/versene to cover the monolayer. Once detached from the flask, cells are mixed with several mLs of DMEM+10% FBS to inactivate the trypsin, then diluted appropriately (usually 1 in 5 or 1 in 10) with sufficient medium to pass to a new flask. For a T225 flask, 40-50 mLs total volume of cells+medium is typically used. To prevent the density dependent drop in replicon RNA, the ET cell line is maintained at sub-confluent (60-80%) levels.
Compounds are diluted in DMSO across the first 10 wells of a Costar V-bottom 96-well plate using a Biomek 2000 Workstation (Beckman-Coulter), with 0.5 log10 dilution intervals. DMSO only is added to the last two columns of the plate. The top concentration of drug in this master plate is typically 2.5 mM. A 1/5 dilution of the compounds is made by adding DMEM+10% FBS with a multichannel pipettor, giving a top concentration of 500 μM. 5 μL of diluted compounds is transferred into black Costar flat bottom 96-well daughter plates using a RapidPlate workstation (Zymark).
Cells are grown to approximately 80% confluency and trypsinised as described above. Cells are counted in a Levy Hemocytometer and diluted to 20,000 cells/ml in DMEM containing 10% FBS, 1× penicillin/streptomycin, 1×NEAAs. (Note: Geneticin is omitted for the assay).
245 μL cell suspension is added to the first 11 columns of the daughter plates prepared as above using a Multidrop dispenser (Titertek). Thus, 5,000 cells are added per well, and the final top concentration of each compound is 10 μM. The twelfth column of each plate is used to generate background readings for the assay. Plates are incubated at 37° C., 5% CO2 for 72 hours.
Steady-Glo reagent is prepared according to the manufacturer's instructions, by mixing the Steady-Glo Buffer and Steady-Glo substrate Buffer at room temperature. Medium is removed from the 96-well plates containing ET cells treated with compound using a multi-channel aspirator. 100 μl of Steady-Glo reagent is added to each well using a multichannel pipettor or Multidrop dispensor. […]

| Structure (SMILES) | IC50 |
| --- | --- |
| O=C(NC1CCCc2c1[nH]c1ccc(Br)cc21)c1ccccn1 (stereo not drawn) [Example 38, N-(6-Bromo-2,3,4,9-tetrahydro-1H-carbazol-1-yl)pyridine-2-carboxamide] | 7 nM |
| O=C(NC1CCCc2c1[nH]c1ccc(Br)cc21)c1ccccc1 (stereo not drawn) [Example 14A, N-(6-Bromo-2,3,4,9-tetrahydro-1H-carbazol-1-yl)benzamide] | 17 nM |
| O=C(NC1CCCc2c1[nH]c1ccc(Br)cc21)c1ccccc1F (stereo not drawn) [Example 29, N-(6-Bromo-2,3,4,9-tetrahydro-1H-carbazol-1-yl)-2-fluorobenzamide] | 6 nM |
| O=C(N[C@@H]1CCCc2c1[nH]c1ccc(Cl)cc21)c1ccccn1 [Example 45B, N-[(1R)-6-chloro-2,3,4,9-tetrahydro-1H-carbazol-1-yl]pyridine-2-carboxamide] | 6 nM |
| O=C(N[C@@H]1CCCc2c1[nH]c1ccc(Cl)cc21)c1ccccc1F [Example 46B, N-[(1R)-6-chloro-2,3,4,9-tetrahydro-1H-carbazol-1-yl]-2-fluorobenzamide] | 16 nM |
| O=C(N[C@@H]1CCCc2c1[nH]c1ccc(Cl)cc21)c1ccccc1 [Example 36B, N-[(1R)-6-chloro-2,3,4,9-tetrahydro-1H-carbazol-1-yl]benzamide] | < 30 nM |
